This note sets out measurements from ChEMBL document CHEMBL1140644, “New modifications to the area of pyrazole-naphthyl urea based p38 MAP kinase inhibitors that bind to the adenine/ATP site” (Bioorg Med Chem Lett, 2007).

Activity calls are given as the source filed them. No cut-off for these calls is given here. Where only a bound is given, the exact number is not on record here.

Broadly, the IC50 is the midpoint of a concentration-inhibition curve. Read a high IC50 as a need for much substance. Usually inhibition in vivo stands for the share of the control response that was lost under treatment. Usually logD stands for the decadic logarithm of the distribution of all forms, ionised or not, between an organic phase and buffer at a given pH.

In one data set the test system is THP-1. As to the kind of experiment: Inhibition of LPS-induced TNFalpha production in THP1 cells. The class given is functional, cell-based. Particulars: Homo sapiens.
In the next data set the test system is Blood. Nature of the data set: Inhibition of LPS-induced TNFalpha production in human whole blood. The class given is functional, tissue-based.
For data set [1], the system named is Mus musculus. Nature of the data set: Inhibition of LPS-induced TNFalpha production in mouse at 10 mg/kg after 1 hr. In kind it is functional.
The subject of data set [2] is Mus musculus. As to the kind of experiment: Inhibition of LPS-induced TNFalpha production in mouse at 3 mg/kg after 1 hr. In kind it is functional.
The species entered for the next data set is Homo sapiens. Nature of the data set: Protein binding in human plasma by equilibrium dialysis. As to conditions: read-out: PPB. (Equilibrium dialysis compares concentrations on both sides of a semipermeable membrane.)
Data set [3] in a line: Lipophilicity, log D at pH 7.4. The class given is physicochemical. As to conditions: buffer.
In data set [4] the target is Mitogen-activated protein kinase 9 (Homo sapiens, UniProt P45984). As to the kind of experiment: Inhibition of Jnk2.
In data set [5] the target is RAF proto-oncogene serine/threonine-protein kinase (Homo sapiens, UniProt P04049). As to the kind of experiment: Inhibition of cRaf.
The target of data set [6] is Proto-oncogene tyrosine-protein kinase Src (Homo sapiens, UniProt P12931). Nature of the data set: Inhibition of Src.
The target in data set [7] is Tyrosine-protein kinase Lyn (Homo sapiens, UniProt P07948). As to the kind of experiment: Inhibition of Lyn.
The target in data set [8] is Tyrosine-protein kinase ABL1 (Homo sapiens, UniProt P00519). As to the kind of experiment: Inhibition of Abl.
Tyrosine-protein kinase ABL1, sequence (P00519 whole entry): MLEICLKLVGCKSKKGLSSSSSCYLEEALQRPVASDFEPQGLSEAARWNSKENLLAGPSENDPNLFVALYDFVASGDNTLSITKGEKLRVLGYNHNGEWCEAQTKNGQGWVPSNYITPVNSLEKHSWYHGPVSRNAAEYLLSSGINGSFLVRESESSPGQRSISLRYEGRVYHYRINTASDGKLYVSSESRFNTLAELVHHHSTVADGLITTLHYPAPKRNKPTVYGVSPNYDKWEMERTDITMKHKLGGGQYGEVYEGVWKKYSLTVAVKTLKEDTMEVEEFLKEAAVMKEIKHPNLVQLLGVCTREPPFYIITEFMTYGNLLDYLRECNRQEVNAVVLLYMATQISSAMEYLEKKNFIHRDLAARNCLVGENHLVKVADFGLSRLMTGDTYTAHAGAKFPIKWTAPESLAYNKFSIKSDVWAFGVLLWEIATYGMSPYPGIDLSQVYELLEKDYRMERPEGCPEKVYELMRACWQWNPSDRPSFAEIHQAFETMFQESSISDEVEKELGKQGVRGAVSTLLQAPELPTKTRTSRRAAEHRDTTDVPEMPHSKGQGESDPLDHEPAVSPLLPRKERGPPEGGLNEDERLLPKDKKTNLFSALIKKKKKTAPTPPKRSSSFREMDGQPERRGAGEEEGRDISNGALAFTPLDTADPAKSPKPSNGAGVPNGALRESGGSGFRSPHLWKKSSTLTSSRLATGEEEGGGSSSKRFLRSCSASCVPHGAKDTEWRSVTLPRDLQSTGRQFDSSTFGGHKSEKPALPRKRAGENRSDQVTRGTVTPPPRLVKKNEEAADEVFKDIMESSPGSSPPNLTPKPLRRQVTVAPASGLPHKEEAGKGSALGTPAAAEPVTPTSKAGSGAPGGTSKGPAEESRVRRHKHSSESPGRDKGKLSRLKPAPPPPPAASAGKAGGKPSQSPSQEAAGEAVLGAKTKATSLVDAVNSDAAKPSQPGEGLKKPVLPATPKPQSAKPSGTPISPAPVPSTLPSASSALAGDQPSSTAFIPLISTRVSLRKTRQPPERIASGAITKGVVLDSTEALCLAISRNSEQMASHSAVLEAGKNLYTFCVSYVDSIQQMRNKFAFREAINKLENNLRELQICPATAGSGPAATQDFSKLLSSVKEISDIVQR

Mitogen-activated protein kinase 9, sequence (P45984 whole entry): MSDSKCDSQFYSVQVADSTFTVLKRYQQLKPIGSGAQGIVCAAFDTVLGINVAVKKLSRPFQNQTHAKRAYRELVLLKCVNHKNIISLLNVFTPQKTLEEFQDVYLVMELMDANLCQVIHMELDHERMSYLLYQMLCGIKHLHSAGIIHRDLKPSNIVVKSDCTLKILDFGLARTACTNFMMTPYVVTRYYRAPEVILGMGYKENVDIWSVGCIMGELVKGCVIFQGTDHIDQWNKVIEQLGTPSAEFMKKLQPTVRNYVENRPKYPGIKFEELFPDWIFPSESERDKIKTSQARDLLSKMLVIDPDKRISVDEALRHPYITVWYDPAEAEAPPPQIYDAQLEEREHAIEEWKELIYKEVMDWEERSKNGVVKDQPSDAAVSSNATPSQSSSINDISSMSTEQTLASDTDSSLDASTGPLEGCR
RAF proto-oncogene serine/threonine-protein kinase, sequence (P04049 whole entry): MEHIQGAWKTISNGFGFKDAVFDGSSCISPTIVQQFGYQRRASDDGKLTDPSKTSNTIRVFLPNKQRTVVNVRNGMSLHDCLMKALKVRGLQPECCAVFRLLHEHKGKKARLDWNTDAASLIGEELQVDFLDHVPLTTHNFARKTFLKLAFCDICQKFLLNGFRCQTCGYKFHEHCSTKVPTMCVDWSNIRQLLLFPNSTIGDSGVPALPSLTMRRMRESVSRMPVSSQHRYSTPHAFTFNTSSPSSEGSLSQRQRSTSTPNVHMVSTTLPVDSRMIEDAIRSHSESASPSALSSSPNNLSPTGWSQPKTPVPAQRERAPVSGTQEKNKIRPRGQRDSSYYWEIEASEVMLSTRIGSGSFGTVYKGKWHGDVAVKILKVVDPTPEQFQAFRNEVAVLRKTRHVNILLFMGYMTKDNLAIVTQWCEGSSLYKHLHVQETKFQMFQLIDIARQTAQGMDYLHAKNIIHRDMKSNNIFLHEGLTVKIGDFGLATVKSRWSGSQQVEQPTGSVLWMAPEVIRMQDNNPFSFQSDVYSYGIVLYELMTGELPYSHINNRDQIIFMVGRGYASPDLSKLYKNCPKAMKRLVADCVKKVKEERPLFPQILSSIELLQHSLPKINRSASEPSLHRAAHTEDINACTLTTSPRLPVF
Tyrosine-protein kinase Lyn, sequence (P07948 whole entry): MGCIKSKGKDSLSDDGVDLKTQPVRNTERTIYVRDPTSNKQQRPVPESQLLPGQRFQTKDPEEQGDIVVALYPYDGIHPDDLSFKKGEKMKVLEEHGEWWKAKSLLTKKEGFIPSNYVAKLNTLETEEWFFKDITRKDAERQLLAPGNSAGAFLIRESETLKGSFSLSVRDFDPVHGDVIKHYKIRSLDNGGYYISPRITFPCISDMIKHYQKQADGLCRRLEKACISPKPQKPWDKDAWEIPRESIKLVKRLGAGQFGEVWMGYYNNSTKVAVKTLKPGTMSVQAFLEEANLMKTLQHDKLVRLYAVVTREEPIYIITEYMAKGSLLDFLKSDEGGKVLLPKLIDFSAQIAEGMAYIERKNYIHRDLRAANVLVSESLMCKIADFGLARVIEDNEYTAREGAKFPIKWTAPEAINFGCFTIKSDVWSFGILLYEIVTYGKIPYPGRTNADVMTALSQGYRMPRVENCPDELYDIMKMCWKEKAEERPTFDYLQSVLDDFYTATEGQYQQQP
Proto-oncogene tyrosine-protein kinase Src, sequence (P12931 2-536 limits assumed): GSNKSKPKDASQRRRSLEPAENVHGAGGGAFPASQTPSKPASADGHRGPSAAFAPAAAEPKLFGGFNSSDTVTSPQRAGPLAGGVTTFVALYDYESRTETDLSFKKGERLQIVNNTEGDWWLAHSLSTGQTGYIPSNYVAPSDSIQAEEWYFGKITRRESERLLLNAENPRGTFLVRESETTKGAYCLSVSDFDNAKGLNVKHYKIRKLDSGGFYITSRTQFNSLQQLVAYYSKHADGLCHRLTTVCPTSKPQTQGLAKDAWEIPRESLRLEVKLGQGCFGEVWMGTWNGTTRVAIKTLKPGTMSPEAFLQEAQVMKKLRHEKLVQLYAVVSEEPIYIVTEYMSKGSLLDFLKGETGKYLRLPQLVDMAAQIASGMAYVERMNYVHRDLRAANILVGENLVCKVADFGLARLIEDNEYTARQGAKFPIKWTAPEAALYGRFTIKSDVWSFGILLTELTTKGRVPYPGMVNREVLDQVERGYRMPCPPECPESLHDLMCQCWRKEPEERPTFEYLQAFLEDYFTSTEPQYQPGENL

In the case of `Cc1ccc(-n2nc(C(C)(C)C)cc2NC(=O)Nc2ccc(-c3cccc(CN4CCOCC4)c3)c3ccccc23)cc1`, the IC50 in the data set with THP-1 was 56 nM; in the data set on Blood, 3900 nM.
For the molecule `Cc1ncc(-n2nc(C(C)(C)C)cc2NC(=O)Nc2ccc(-c3ccc(CN4CCOCC4)nc3)c3ccccc23)cn1`, the IC50 in the data set on THP-1 was 14 nM; in the data set on Blood it was 160 nM. Besides, the inhibition in vivo at 10 mg/kg with Mus musculus [1] amounted to 95%. In addition, testing at 3 mg/kg in the data set on Mus musculus [2] gave an inhibition in vivo of 85%. For the same molecule, the fraction unbound in the data set filed under Homo sapiens is < 0.03.
For the molecule `Cn1cc(-n2nc(C(C)(C)C)cc2NC(=O)Nc2ccc(-c3ccc(CN4CCOCC4)nc3)c3ccccc23)cn1`, the IC50 with THP-1 came to 11 nM; in the data set on Blood, 90 nM. In the data set on Mus musculus [2], this molecule yielded an inhibition in vivo at 3 mg/kg of 73%.
On to `Cc1ccc(-n2nc(C(C)(C)C)cc2NC(=O)Nc2ccc(-c3ccc(CN4CCOCC4)nc3)c3ccccc23)cn1`, for which the half-maximal inhibitory concentration (IC50) amounted to 11 nM in the data set on THP-1 and 200 nM in the data set on Blood. Also, in the data set on Mus musculus [1], the inhibition in vivo at 10 mg/kg came to 86%. The molecule further had an inhibition in vivo at 3 mg/kg in the data set with Mus musculus [2] of 50%.
On to `Cc1ccc(-n2nc(C(C)(C)C)cc2NC(=O)Nc2cccc3ccccc23)cc1`, for which the IC50 in the data set with THP-1 is 320 nM; in the data set with Blood, > 15000 nM.
For `Cn1nc(C(C)(C)C)cc1NC(=O)Nc1ccc(-c2ccc(CN3CCOCC3)nc2)c2ccccc12`, the IC50 is 32 nM with THP-1 and 950 nM in the data set with Blood. In addition, the outcome in the data set with Mus musculus [1] was inactive.
Regarding `Cc1ccc(-n2nc(C(C)(C)C)cc2NC(=O)Nc2ccc(-c3ccco3)c3ccccc23)cc1`, the IC50 in the data set with THP-1 came to 390 nM. That is a sub-micromolar value.
In turn, `Cc1ccc(-n2nc(C(C)(C)C)cc2NC(=O)Nc2ccc(OCCN3CCOCC3)c3ccccc23)cc1` [DORAMAPIMOD] gave a logD in data set [3] of 4.3. The molecule further registered an inhibition in vivo at 10 mg/kg in the data set with Mus musculus [1] of 63%.
Turning to `Cc1ccc(-n2nc(C(C)(C)C)cc2NC(=O)Nc2ccc(-c3ccccc3)c3ccccc23)cc1`, the 50% inhibitory concentration (IC50) was 1430 nM in the data set with THP-1 and > 15000 nM in the data set on Blood.
Regarding `Cc1ccc(-n2nc(C(C)(C)C)cc2NC(=O)Nc2ccc(-c3ccc(CN4CCOCC4)o3)c3ccccc23)cc1`, the figures for the IC50 in the data set on THP-1 and in the data set with Blood were 70 nM and 6400 nM, respectively.
As to `Cc1ccc(-n2nc(C(C)(C)C)cc2NC(=O)Nc2ccc(-c3cccc(N4CCOCC4)c3)c3ccccc23)cc1`, the IC50 in the data set on THP-1 is 1350 nM; in the data set with Blood, > 15000 nM.
Regarding `Cc1ccc(-n2nc(C(C)(C)C)cc2NC(=O)Nc2ccc(-c3ccc(CN(C)C)cc3)c3ccccc23)cc1`, the IC50 in the data set with THP-1 amounted to 104 nM; with Blood, 9200 nM.
`Cc1ccc(-n2nc(C(C)(C)C)cc2NC(=O)Nc2ccc(-c3ccc(CCN4CCOCC4)cc3)c3ccccc23)cc1`: the IC50 in the data set on THP-1 is 56 nM; in the data set with Blood, 1700 nM.
Consider `Cc1ccc(-n2nc(C(C)(C)C)cc2NC(=O)Nc2ccc(-c3ccc(CN4CCOCC4)cc3)c3ccccc23)cc1`, for which the IC50 in the data set with THP-1 came to 36 nM; in the data set with Blood, 1100 nM.
In the case of `Cc1ccc(-n2nc(C(C)(C)C)cc2NC(=O)Nc2ccc(-c3ccc(N4CCOCC4)cc3)c3ccccc23)cc1`, the IC50 in the data set with THP-1 was 470 nM; in the data set on Blood, > 15000 nM.
With `Cc1ccc(-n2nc(C(C)(C)C)cc2NC(=O)Nc2ccc(-c3ccc(CN4CCOCC4)cn3)c3ccccc23)cc1`, the IC50 was 26 nM in the data set on THP-1 and 590 nM in the data set on Blood. Also, the logD in data set [3] came out at 5.2.
As to `Cc1ccc(-n2nc(C(C)(C)C)cc2NC(=O)Nc2ccc(-c3ccc(CN4CCN(C)CC4)cc3)c3ccccc23)cc1`, the IC50 in the data set with THP-1 stood at 46 nM; in the data set with Blood, 3600 nM.
In the case of `Cc1ccc(-n2nc(C(C)(C)C)cc2NC(=O)Nc2ccc(-c3ccc(CN4CCOCC4)nc3)c3ccccc23)cc1`, the 50% inhibitory concentration (IC50) with THP-1 was 9 nM; in the data set with Blood, 230 nM; in data set [4], 2 nM; in [5], 400 nM; in data set [6], 1000 nM; in [7], 1000 nM. This molecule also yielded an IC50 in data set [8] of 1000 nM. The same molecule came in with a logD in data set [3] of 5.2. This molecule also gave an inhibition in vivo at 10 mg/kg with Mus musculus [1] of 74%. The result in the data set on Mus musculus [2] was inactive.
